From the NIST ThermoML archive (doi:10.1007/s10765-011-1149-x)
Numbers after ± are expanded uncertainties.

Experiment: xn = mol fraction of the nth substance listed
Conditions: 101 kPa, Liquid, Vibrating tube method

With `Cc1cc(C)nc(C)c1` [2,4,6-trimethylpyridine] + CO the mass density (276.15 K, x1 = 0.0204) was 816.99 ± 0.14 kg/m3, the mass density (276.15 K, x1 = 0.0511) was 830.47 ± 0.14 kg/m3 and the mass density (276.15 K, x1 = 0.0997) was 848.99 ± 0.14 kg/m3. The mass density (276.15 K, x1 = 0.194) was 875.69 ± 0.16 kg/m3, the mass density (276.15 K, x1 = 0.2957) was 895.63 ± 0.15 kg/m3 and the mass density (276.15 K, x1 = 0.3884) was 907.79 ± 0.14 kg/m3. It also gave a mass density (276.15 K, x1 = 0.489) of 916.36 ± 0.15 kg/m3, a mass density (276.15 K, x1 = 0.5852) of 921.51 ± 0.15 kg/m3 and a mass density (276.15 K, x1 = 0.6949) of 925.01 ± 0.17 kg/m3. It also gave a mass density (276.15 K, x1 = 0.7971) of 926.99 ± 0.19 kg/m3, a mass density (276.15 K, x1 = 0.8889) of 928.16 ± 0.21 kg/m3 and a mass density (276.15 K, x1 = 1) of 928.45 ± 0.23 kg/m3. For the same compound, the mass density (277.15 K, x1 = 0.0204) was 816.06 ± 0.15 kg/m3, the mass density (277.15 K, x1 = 0.0511) was 829.54 ± 0.15 kg/m3 and the mass density (277.15 K, x1 = 0.0997) was 848.07 ± 0.18 kg/m3. It also gave a mass density (277.15 K, x1 = 0.194) of 874.77 ± 0.21 kg/m3, a mass density (277.15 K, x1 = 0.2957) of 894.71 ± 0.19 kg/m3 and a mass density (277.15 K, x1 = 0.3884) of 906.88 ± 0.17 kg/m3. It also gave a mass density (277.15 K, x1 = 0.489) of 915.47 ± 0.17 kg/m3, a mass density (277.15 K, x1 = 0.5852) of 920.64 ± 0.17 kg/m3 and a mass density (277.15 K, x1 = 0.6949) of 924.15 ± 0.18 kg/m3. The mass density (277.15 K, x1 = 0.7971) was 926.14 ± 0.19 kg/m3, the mass density (277.15 K, x1 = 0.8889) was 927.31 ± 0.21 kg/m3 and the mass density (277.15 K, x1 = 1) was 927.61 ± 0.23 kg/m3. For the same compound, the mass density (283.14 K, x1 = 0.2957) was 889.2 ± 0.15 kg/m3, the mass density (283.14 K, x1 = 0.3884) was 901.42 ± 0.15 kg/m3 and the mass density (283.14 K, x1 = 0.5852) was 915.35 ± 0.16 kg/m3. It also gave a mass density (283.14 K, x1 = 0.7971) of 921.01 ± 0.19 kg/m3, a mass density (283.15 K, x1 = 0.0204) of 810.47 ± 0.15 kg/m3 and a mass density (283.15 K, x1 = 0.0511) of 823.96 ± 0.14 kg/m3. For the same compound, the mass density (283.15 K, x1 = 0.0997) was 842.5 ± 0.14 kg/m3, the mass density (283.15 K, x1 = 0.194) was 869.23 ± 0.14 kg/m3 and the mass density (283.15 K, x1 = 0.489) was 910.1 ± 0.15 kg/m3. It also gave a mass density (283.15 K, x1 = 0.6949) of 918.95 ± 0.17 kg/m3, a mass density (283.15 K, x1 = 0.8889) of 922.22 ± 0.21 kg/m3 and a mass density (283.15 K, x1 = 1) of 922.54 ± 0.23 kg/m3. It also gave a mass density (288.15 K, x1 = 0.0204) of 805.79 ± 0.15 kg/m3, a mass density (288.15 K, x1 = 0.0511) of 819.3 ± 0.15 kg/m3 and a mass density (288.15 K, x1 = 0.0997) of 837.86 ± 0.14 kg/m3. For the same compound, the mass density (288.15 K, x1 = 0.194) was 864.59 ± 0.15 kg/m3, the mass density (288.15 K, x1 = 0.2957) was 884.59 ± 0.15 kg/m3 and the mass density (288.15 K, x1 = 0.3884) was 896.86 ± 0.15 kg/m3. The mass density (288.15 K, x1 = 0.489) was 905.6 ± 0.15 kg/m3, the mass density (288.15 K, x1 = 0.5852) was 910.93 ± 0.16 kg/m3 and the mass density (288.15 K, x1 = 0.6949) was 914.61 ± 0.17 kg/m3. For the same compound, the mass density (288.15 K, x1 = 0.7971) was 916.72 ± 0.19 kg/m3, the mass density (288.15 K, x1 = 0.8889) was 917.96 ± 0.21 kg/m3 and the mass density (288.15 K, x1 = 1) was 918.32 ± 0.24 kg/m3. The mass density (293.14 K, x1 = 0.0997) was 833.2 ± 0.15 kg/m3, the mass density (293.14 K, x1 = 1) was 914.08 ± 0.24 kg/m3 and the mass density (293.15 K, x1 = 0.0204) was 801.11 ± 0.15 kg/m3. It also gave a mass density (293.15 K, x1 = 0.0511) of 814.63 ± 0.15 kg/m3, a mass density (293.15 K, x1 = 0.194) of 859.94 ± 0.15 kg/m3 and a mass density (293.15 K, x1 = 0.2957) of 879.97 ± 0.15 kg/m3. The mass density (293.15 K, x1 = 0.3884) was 892.28 ± 0.15 kg/m3, the mass density (293.15 K, x1 = 0.489) was 901.1 ± 0.16 kg/m3 and the mass density (293.15 K, x1 = 0.5852) was 906.5 ± 0.16 kg/m3. For the same compound, the mass density (293.15 K, x1 = 0.6949) was 910.25 ± 0.18 kg/m3, the mass density (293.15 K, x1 = 0.7971) was 912.41 ± 0.19 kg/m3 and the mass density (293.15 K, x1 = 0.8889) was 913.69 ± 0.21 kg/m3. It also gave a mass density (298.14 K, x1 = 0.0511) of 809.94 ± 0.15 kg/m3, a mass density (298.14 K, x1 = 0.6949) of 905.88 ± 0.18 kg/m3 and a mass density (298.14 K, x1 = 0.8889) of 909.41 ± 0.21 kg/m3. The mass density (298.15 K, x1 = 0.0204) was 796.41 ± 0.15 kg/m3, the mass density (298.15 K, x1 = 0.0997) was 828.52 ± 0.15 kg/m3 and the mass density (298.15 K, x1 = 0.194) was 855.28 ± 0.15 kg/m3. For the same compound, the mass density (298.15 K, x1 = 0.2957) was 875.33 ± 0.15 kg/m3, the mass density (298.15 K, x1 = 0.3884) was 887.69 ± 0.15 kg/m3 and the mass density (298.15 K, x1 = 0.489) was 896.57 ± 0.16 kg/m3. It also gave a mass density (298.15 K, x1 = 0.5852) of 902.05 ± 0.16 kg/m3, a mass density (298.15 K, x1 = 0.7971) of 908.1 ± 0.19 kg/m3 and a mass density (298.15 K, x1 = 1) of 909.84 ± 0.24 kg/m3. The mass density (303.14 K, x1 = 0.7971) was 903.77 ± 0.19 kg/m3, the mass density (303.14 K, x1 = 0.8889) was 905.12 ± 0.21 kg/m3 and the mass density (303.15 K, x1 = 0.0204) was 791.7 ± 0.15 kg/m3. The mass density (303.15 K, x1 = 0.0511) was 805.24 ± 0.15 kg/m3, the mass density (303.15 K, x1 = 0.0997) was 823.83 ± 0.15 kg/m3 and the mass density (303.15 K, x1 = 0.194) was 850.6 ± 0.15 kg/m3. For the same compound, the mass density (303.15 K, x1 = 0.2957) was 870.67 ± 0.15 kg/m3, the mass density (303.15 K, x1 = 0.3884) was 883.08 ± 0.15 kg/m3 and the mass density (303.15 K, x1 = 0.489) was 892.04 ± 0.16 kg/m3. It also gave a mass density (303.15 K, x1 = 0.5852) of 897.58 ± 0.16 kg/m3, a mass density (303.15 K, x1 = 0.6949) of 901.49 ± 0.18 kg/m3 and a mass density (303.15 K, x1 = 1) of 905.58 ± 0.24 kg/m3. For the same compound, the mass density (308.14 K, x1 = 0.0997) was 819.11 ± 0.15 kg/m3, the mass density (308.14 K, x1 = 0.194) was 845.89 ± 0.15 kg/m3 and the mass density (308.14 K, x1 = 0.3884) was 878.45 ± 0.15 kg/m3. It also gave a mass density (308.14 K, x1 = 0.489) of 887.48 ± 0.16 kg/m3, a mass density (308.14 K, x1 = 0.5852) of 893.1 ± 0.16 kg/m3 and a mass density (308.14 K, x1 = 0.6949) of 897.08 ± 0.18 kg/m3. For the same compound, the mass density (308.14 K, x1 = 0.7971) was 899.42 ± 0.19 kg/m3, the mass density (308.15 K, x1 = 0.0204) was 786.96 ± 0.15 kg/m3 and the mass density (308.15 K, x1 = 0.0511) was 800.51 ± 0.15 kg/m3. The mass density (308.15 K, x1 = 0.2957) was 865.99 ± 0.15 kg/m3, the mass density (308.15 K, x1 = 0.8889) was 900.82 ± 0.21 kg/m3 and the mass density (308.15 K, x1 = 1) was 901.31 ± 0.24 kg/m3. The mass density (313.14 K, x1 = 0.0204) was 782.2 ± 0.15 kg/m3, the mass density (313.14 K, x1 = 0.0511) was 795.75 ± 0.15 kg/m3 and the mass density (313.14 K, x1 = 0.0997) was 814.36 ± 0.16 kg/m3. It also gave a mass density (313.14 K, x1 = 0.489) of 882.9 ± 0.16 kg/m3, a mass density (313.14 K, x1 = 0.6949) of 892.65 ± 0.18 kg/m3 and a mass density (313.15 K, x1 = 0.194) of 841.15 ± 0.16 kg/m3. The mass density (313.15 K, x1 = 0.2957) was 861.28 ± 0.16 kg/m3, the mass density (313.15 K, x1 = 0.3884) was 873.79 ± 0.16 kg/m3 and the mass density (313.15 K, x1 = 0.5852) was 888.59 ± 0.17 kg/m3. It also gave a mass density (313.15 K, x1 = 0.7971) of 895.05 ± 0.2 kg/m3, a mass density (313.15 K, x1 = 0.8889) of 896.49 ± 0.21 kg/m3 and a mass density (313.15 K, x1 = 1) of 897.03 ± 0.24 kg/m3.
